Assay [1] deals with near-sightedness (myopia). As to the kind of experiment: Topical application around the eyes, eye vision (myopia). The assay is classed as in vivo, human. The conditions noted are these: person. An excerpt:
Typical examples of improving eye vision are described as follows.
Each time their vision in both eyes got worse, and they required changes in contact lenses in past years. This time, 6 weeks before their checkup, the subject topically applied twice daily 0.5% (w/v) N—Ac-L-Tyr-L-Tyr-NH2 in WEP442, pH 6.7 (Example 5) on the skin around and outside of eye areas and periorbital regions for 6 weeks.
Each time their vision in both eyes worsened, and they required changes in the prescription for their contact lenses in the past years. This time, one month before their checkup, the subject topically applied once daily 0.5% (w/v) N—Ac-L-Tyr-L-Tyr-NH2 in WEP442, pH 6.7 (Example 5) on the skin around and outside of eye areas and periorbital regions for 4 weeks.

Assay [2] has as its system sweating of underarm. As to the kind of experiment: Topical application to underarm, perspiration. The assay is classed as in vivo, human. The conditions noted are these: 0.5% (w/v) in WEP442 pH 6.7 after shower. The source says: A subject, routinely took a shower every morning, then topically applied a conventional antiperspirant product on the underarm skin to prevent perspiration. To test the efficacy of the N-acyldipeptide derivative of the present invention, the subject after the shower, topically applied 0.5% (w/v) N—Ac-L-Tyr-L-Tyr-NH2 in WEP442, pH 6.7 (Example 5) on the left underarm and a control vehicle WEP442 on the right underarm. After two hours, there was profuse sweating in the right underarm as evidenced by the wet shirt in the armpit area. In contrast, there was no sweating in the left underarm as shown by the dry shirt in the armpit area. The left underarm was dry for the next 6-8 hours.

Assay [3] relates to varicose veins. The assay can be described thus: Topical treatment of varicose veins. The conditions noted are these: 0.5% (w/v) in WEP442 topically twice daily, right lower leg, end of four weeks. The assay is classed as in vivo, human. The source says: A subject had multiple varicose veins in their right lower leg for many years resistant to any kind of topical treatments including high potency alpha-hydroxyacids. The lesions of varicose veins covered an area of skin measuring 5 cm×10 cm and appeared more prominent with advancing age. The subject topically applied twice daily 0.5% (w/v) N—Ac-L-Tyr-L-Tyr-NH2 in WEP442 solution as prepared in Example 5. […] It is believed that continued topical application will eradicate the varicose veins.

Assay [4] relates to skin cut with an open wound. The assay can be described thus: Topical treatment of skin wound. The assay is classed as in vivo, human. The conditions noted are these: 0.5% (w/w) cream twice daily on 2 cm open wound. An excerpt: The subject topically applied twice daily 0.5% (w/w) N—Ac-L-Val-L-Ala-NH2 cream as formulated in Example 2 on the wound. […] At the end of 5 days, the wound had healed nearly completely, and treated skin appeared normal without any signs of scar formation. The wound had 95-100% improvement as judged by clinical evaluation.

Assay [5] deals with interleukin-6 (IL-6) in THP-1 leukemia cells. As to the kind of experiment: In vitro screen for anti-inflammatory effects: angiocidin-induced IL-6 in THP-1 cells (ELISA). The assay is classed as cell-based, human. The conditions noted are these: 100 μg/ml for 24 hours, then angiocidin 10 μg/ml for 24 hours. The protocol:
A typical in vitro screen for anti-inflammatory effects was carried out as follows.
THP-1 leukemia cells (monocytic leukemic human cell line) were cultured and either untreated or treated with a bioactive dipeptide derivative (100 μg/ml) of the present invention for 24 hours. The untreated or treated leukemia cells were then treated with angiocidin (10 μg/ml) for 24 hours to induce interleukin-6 (IL-6) which was an indicator of the inflammation. The induced IL-6 was measured quantitatively by ELISA (enzyme-linked immunosorbent assay). […] Therefore, the bioactive dipeptide derivatives of the present invention, such as N—Ac-L-Val-L-Ala-NH2, have the potential use as nonsteroidal anti-inflammatory substances.
In general terms: ELISA stands for enzyme-linked immunosorbent assay.

Assay [6] relates to osteoarthritis of both knees. As to the kind of experiment: Intra-articular injections in knee osteoarthritis. The assay is classed as in vivo, human. How it is done:
Bioactive dipeptide derivative of the present invention as potential treatment of knee osteoarthritis by intra-articular injections.
A subject had severe osteoarthritis of both knees for four and half years. Prior therapy had included intra-articular injections of corticosteroids and hyaluronic acid as well as celecoxib (Celebrex) orally (200 mg) twice daily. Such therapy had provided only mild transitory relief of knee pain and edema, and edema of lower legs.
Intra-articular injections of 0.2% (w/v) N—Ac-L-Val-L-Ala-NH2 in water, 1 ml (2 mg) as prepared in Example 22 were administered to each knee. The pains in both knees disappeared 10-15 minutes after the injections, and the relief of pains lasted for 24 hours. Edema and inflammation of the knees and lower legs had diminished for approximately the same 24 hour period. Repeat injections of the same composition were administered once a week for five weeks to provide continued relief of pain, edema and inflammation.
In another trial, intra-articular injections of 0.2% (w/v) N—Ac-L-Val-L-Ala-NH2 with 1% (w/v) methyl cellulose in water, 0.4 ml (0.8 mg) as prepared in Example 22 were also administered to each knee at different times. The pains in both knees disappeared 10-15 minutes after the injections, and the relief of pains lasted for 24 hours. Edema and inflammation of the knees and lower legs had diminished for approximately the same 24 hour period.
In yet another embodiment, the volunteer subject injected intra-articularly into a knee joint a test composition containing a bioactive dipeptide derivative of the present invention to improve and reduce arthritic inflammation and pain of the joint.

Assay [7] has as its system MB231 breast cancer cells. As to the kind of experiment: In vitro screen for anti-tumor effects: proliferation of MB231 cells (MTS). The assay is classed as cell-based. The conditions noted are these: 20 μg/ml, end of 3 days of incubation, MTS absorbance at 490 nm vs water control. How it is done: A typical in vitro screen for anti-tumor or anti-cancer effects was carried out as follows.
An aliquot of 2,000 MB231 breast cancer cells (breast carcinoma cells) in 100 μl DMEM complete media (Sigma Chemical Co.) was plated in a 96 well plate containing at a concentration of 20 μg/ml a test substance or control water. To measure proliferation of the cancer cells, an aliquot of 20 μl of MTS reagent (Promega Co.) was added to each well and the cells were incubated at […] for a total of three days. The cells rapidly metabolized MTS reagent and the metabolized MTS reagent was measured at 490 nm at the end of days 1, 2 and 3. The reading was proportional to the number of cancer cells. The decrease in absorbance at each time point indicated fewer cancer cells. At the end of day 3, the decrease in absorbance with respect to the control indicated the inhibition by the test substance.

The mark [8] stands for this setting: 0.2% (w/v) in water, 1 ml (2 mg) intra-articular per knee.
[9] abbreviates: 0.2% (w/v) with 1% (w/v) methyl cellulose in water, 0.4 ml (0.8 mg) intra-articular per knee.

SMILES strings stand for the structures. Peptide text beside a SMILES is read from it.

`CC(=O)N[C@@H](Cc1ccc(O)cc1)C(=O)N[C@@H](Cc1ccc(O)cc1)C(N)=O` [N-Ac-L-Tyr-L-Tyr-NH2] (Ac-Tyr-Tyr-NH2): the “vision in both eyes at yearly checkup” value in assay [1] (0.5% (w/v) in WEP442 pH 6.7 once daily on skin around eyes for 4 weeks) and in assay [1] (0.5% (w/v) in WEP442 pH 6.7 twice daily on skin around eyes for 6 weeks) was “did not worsen” throughout. Also, in assay [2], the “time the treated underarm stayed dry” value is 6 to 8 h. The “sweating of treated left underarm” value in assay [2] (after two hours, vehicle underarm profuse sweating) is given as “no sweating”. The “appearance of varicose vein lesions” value in assay [3] is given as “appeared less prominent”.
Consider `CC(=O)N[C@H](C(=O)N[C@@H](C)C(N)=O)C(C)C` [N-Ac-L-Val-L-Ala-NH2] (Ac-Val-Ala-NH2), for which the “improvement of wound as judged by clinical evaluation” value in assay [4] (end of 5 days) was 95-100%. Further, in assay [4] (left leg), the “wound pain after topical application” value is “stopped within a few minutes”. Besides, the “inhibition of the production of IL-6” value in assay [5] is given as “approximately 70%”. In assay [6] (setting [8]), the “duration of relief of pains” value is 24 h; the “period of diminished edema and inflammation of knees and lower legs” value was around 24 h; the “time after injection until pains in both knees disappeared” value was 10 to 15 min. For the same compound, in assay [6] (setting [9]), the “duration of relief of pains” value was found to be 24 h; the “period of diminished edema and inflammation of knees and lower legs” value is around 24 h; the “time after injection until pains in both knees disappeared” value was 10 to 15 min. Further, the “inhibition of the growth of breast cancer cells” value in assay [7] was “approximately 12%”.

The values are drawn from patent publication US11224565B2, “N-acyldipeptide derivatives and their uses” (NeoStrata Company, Inc., priority 2011, dated 2022).
